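Following 48 hours of exposure in 96-well plates, responses at five concentrations were used to interpolate endpoints linearly. At the GI50, growth is halved.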 Calls of active or inactive are those of the source. Cut-off read from the data, not from the text of the source: active = GI50 up to about 1.1 µM and inactive = higher.
Legend:
Test in all cases: inhibition of tumour cell growth, NCI panel, 48 h
[1] = tested on: SK-MEL-2
[2] = tested on: HT-29
[3] = tested on: UACC-257
[4] = tested on: Hs-578T
[5] = tested on: SW-620
[6] = tested on: SNB-75
[7] = tested on: HL-60
[8] = tested on: OVCAR-3
[9] = tested on: MOLT-4
[10] = tested on: OVCAR-5
[11] = tested on: SR
[12] = tested on: ACHN
[13] = tested on: NCI/ADR-RES
[14] = tested on: 786-0
[15] = tested on: KM12
[16] = tested on: SF-268
[17] = tested on: M14
[18] = tested on: A498
[19] = tested on: MDA-MB-231

Measured: GI50

COC12COC(=O)C1C(c1ccc3c(c1)OCO3)c1cc3c(cc1O2)OCO3 (stereo unspecified)
inactive: [1] 17.6 µM | [2] 6.44 µM | [3] 27.9 µM | [4] 19.5 µM | [5] 8.49 µM | [6] 7.71 µM | [7] 5.28 µM | [8] 9.62 µM | [9] 7.11 µM | [10] > 73.1 µM | [11] 5.38 µM | [12] 29.1 µM | [13] 5.3 µM | [14] 25.1 µM | [15] 7.91 µM | [16] 27.9 µM | [17] 13 µM | [18] 29.2 µM | [19] 25.4 µM

CC1/C=C/C=C/CC/C=C/C=C/C=C/C=C/C(OC2OC(C)C(O)C(N)C2O)CC2OC(CC(O)C(O)CCC(O)CC(O)CC(O)CC(=O)OC(C)C(C)C1O)CC(O)C2C(=O)O (stereo unspecified)
inactive: [1] 28.6 µM | [2] 17.3 µM | [3] 17 µM | [4] 24.8 µM | [5] 20.7 µM | [6] 18.6 µM | [7] 23.9 µM | [8] 20 µM | [9] 20.2 µM | [10] 17.9 µM | [11] 16.9 µM | [12] 17.7 µM | [13] 21.3 µM | [14] 17 µM | [15] 26.8 µM | [16] 24.9 µM | [17] 19.7 µM | [18] 18.7 µM | [19] 17.6 µM

COc1ccc(C2C(C#N)=C(S)N(C3OC(CO)C(O)C(O)C3O)C(c3ccccc3)=C2C(C)=O)cc1 (stereo unspecified)
inactive: [1] 49.7 µM | [2] 46.1 µM | [3] 77.4 µM | [4] 45.3 µM | [5] 7.18 µM | [6] 23.6 µM | [7] 39.7 µM | [8] 22.2 µM | [9] 28.1 µM | [10] > 100 µM | [11] 40.3 µM | [12] 83.9 µM | [13] > 100 µM | [14] 67.3 µM | [15] > 100 µM | [16] 45.7 µM | [17] 65 µM | [18] > 100 µM | [19] 95.5 µM

COP(=O)(OC)c1ccc(NCc2cc(O)ccc2O)cc1
inactive: [1] 46.6 µM | [2] 24.8 µM | [3] 22.2 µM | [4] 24.8 µM | [5] 42 µM | [6] 29.5 µM | [7] 21.4 µM | [8] 6.34 µM | [9] 30.2 µM | [10] 23.9 µM | [11] 14.3 µM | [12] 18.3 µM | [13] 31 µM | [14] 25.2 µM | [15] 19.9 µM | [16] 17.6 µM | [17] 13.8 µM | [18] 92.7 µM | [19] 26.9 µM
